Test [1] concerns human-derived Caco-2 cells. Briefly: In vitro transwell screening in Caco-2 cells, barrier disrupted by Clostridium difficile toxin (TEER and FITC-dextran permeability). The format is cell-based. The following applies: for integrated TEER (area under the curve, FIG. 21B): luminal, C. difficile toxin; for TEER, indole metabolites (FIG. 22A): applied to the lumen, TOX. The text has this:
FIG. 20A-20B. In vitro screening of metabolites effective against leaky gut. FIG. 20A, Diagram of the in vitro transwell method used to evaluate efficacy of metabolites in protecting the leaky gut in human-derived Caco-2 cells. The luminal compartment represents the food side, and the basolateral the blood side. FIG. 20B, Transepithelial electrical resistance (TEER) measurements, and FITC-dextran measurements, evaluate the leakiness of the tight junction that regulates the pore (top) and leak (bottom) pathways of the gut. Ions (red), small molecules (blue), FITC-dextran (orange).
FIG. 21A-21D. Efficacy of tryptophan and vitamin B3 metabolites in protecting the gut barrier in vitro. FIG. 21A, TEER measurements of metabolites placed on luminal side of transwells for 72 hours. After 48 hours, the barrier was disrupted by the toxin of clostrium difficile (Cdiff). FIG. 21B, Integrated results of area under the curve using data from FIG. 21A. FIG. 21C, FITC-dextran permeability analysis of metabolites applied luminally. FIG. 21D, FITC-dextran permeability analysis of metabolites applied basolaterally.
FIG. 22A-22B. Efficacy of microbiota-derived indole metabolites in protecting the gut barrier. FIG. 22A, Integrated results of TEER measurements of metabolites placed on luminal side of transwells for 72 hours. After 48 hours, the barrier was disrupted by the toxin of clostrium difficile (Cdiff) FIG. 22B, FITC-dextran permeability analysis of metabolites from FIG. 22A applied luminally.
To perform in vitro screening of the metabolites effective against leaky gut, an in vitro transwell method was used. (FIG. 20A) The efficacy of these metabolites in protecting the leaky gut was analyzed in human-derived Caco-2 cells. Transepithelial electrical resistance (TEER) measurements evaluates the leakiness of the tight junction that regulates the pore (FIG. 20B, top) and leak (FIG. 20B, bottom) pathways of the gut. The higher the TEER, the less permeable the junction is to the movement of ions and small molecules. FITC-dextran is a large polysaccharide with a fluorescent moiety, typically used as a probe to assess the leakiness of the tight junction to large molecules like dextran. The faster the movement of FITC-dextran from lumen to blood, the greater the permeability.
(FIG. 21A) There was no effect of these metabolites on TEER when applied by themselves. After 48 h, the barrier was disrupted by the toxin of a common “bad” bacteria Clostridium difficile (Cdiff). TEER plummeted with this toxin (TOX, red line) compared to control (Veh, blue line). […] (FIG. 21A)

Test [2] has as its system Tff3 and Lyz1 (goblet and Paneth cells). In words: Organoids: goblet and Paneth cell transcripts (Tff3, Lyz1) and cell numbers. Type of test: cell-based, mouse. The settings on record: enteroids. Here is the method: (§1) We had 2 series of metabolite-treated organoid experiments, i.e., 1) organoid from conventional C57BL6 mice and 2) Ocln KO and littermate WT control as a gift from Prof. Jerrold Turner (Harvard University). […] Seeding is designated as day 0. On day 3 of culture, the existing media in the wells were completely removed before adding treatments. LPS (1 μg/mL) with or without metabolites, i.e., IPA (0.1 mM) (Li et al., 2021), IAM (200 μM) (Vyhlidalova et al., 2020), MNA (12 ng/ml) (Liu et al., 2015), CARN (20 mM) (Boldyrev et al., 2013) or ASA (1 μM) (Erez et al., 2011) were each added in CCM at known physiological concentrations, incubated for 48 hours, thereafter, organoid was harvested for RNA extraction, and paraformaldehyde fixation for immunostaining.
(§2) Total RNA was extracted from the intestinal organoids using a commercially available kit (RNeasy Microkit; Qiagen, MD, Cat. #74004) following manufacturer's instructions. mRNA samples were converted to cDNA using Bio-Rad's iScript Reverse Transcription Supermix for RT-qPCR (Bio-Rad Laboratories, Hercules, CA, Cat. #1708840). cDNA was then used for RT-qPCR (Mx3000P. Stratagene, La Jolla, CA) to analyze several genes using Maxima SYBR Green qPCR Master Mix (Thermo Fisher Scientific, Waltham, MA) and primers (Integrated DNA Technologies, Coralville, IA). Thermal profile for three-step cycling was 10 min at 95° C. for initial denaturation; then 40 cycles of 15 sec at 95° C. for denaturation, 30 sec at 65° C. for annealing, and 30 sec at 75° C. for extension. Primers used are as follows: β-actin (Actb), forward 5′-[…]-3′ (SEQ ID NO: 5), reverse 5′-[…]-3′ (SEQ ID NO: 6); ZO-1 (Tjp1), forward 5′-[…]-3′ (SEQ ID NO: 7), reverse 5′-[…]-3′ (SEQ ID NO: 8), Ocln, forward 5′-[…]-3′ (SEQ ID NO: 9), reverse 5′-[…]-3′ (SEQ ID NO: 10); Lyz1, forward 5′-ATGGCTACCGTGGTGTCAAG-3′ (SEQ ID NO: 11), reverse 5′-CGGTCTCCACGGTTGTAGTT-3′ (SEQ ID NO: 12); Tff3, forward 5′-TAATGCTGTTGGTGGTCCTG-3′ (SEQ ID NO: 13), reverse 5′-CAGCCACGGTTGTTACACTG-3′ (SEQ ID NO: 14). All samples were normalized to β actin expression. Gene expression levels are depicted as fold change relative to the control group.
(§3) Immunocytochemistry followed earlier work (Pearce et al., 2018). Briefly, organoids were extracted from Matrigel by using cell recovery solution (Corning, Cat. No. 354253), processed then fixed in 4% paraformaldehyde for 15 min and dehydrated with 70% ethanol and kept in 4° C. until embedded in paraffin. On the day of embedding, organoids were gently spun down to a pellet (250 g for 5 min), then the supernatant was removed, the pellet resuspended in agarose and embedded in paraffin. […]

The subject of the next test is ZO-1 (Tjp1) and Ocln. In words: Intestinal organoids treated with LPS and metabolites: tight junction (TJ) expression, RT-qPCR and immunostaining. The format is cell-based, mouse. Here is the method: Intestinal organoids were isolated as previously described (Das et al., 2015; Pearce et al., 2018). Briefly, crypts were isolated from small intestine of conventional house C57BL/6 male mice (Taconic Laboratories, Hudson, NY) by shaking in isolation buffer (2 mM EDTA in PBS), then, crypts were harvested, processed, and suspended in crypt culture medium (CCM), which consisted of advanced DMEM/F12 (Life Technologies, Carlsbad, CA) supplemented with serum-free B27 (1:50; Life Technologies), N2 (1:100; Life Technologies), N-acetylcysteine (1 mM; Sigma-Aldrich, St. Louis, MO), recombinant murine epithelial growth factor (EGF, 50 ng/ml; Peprotech, Rocky Hill, NJ), Noggin (100 ng/ml; Peprotech), R-Spondin (500 ng/ml; Peprotech), Glutamax-I supplement (1:100; Life Technologies), penicillin/streptomycin (500 μg/ml; Life Technologies), and HEPES ([…]; Life Technologies). Crypts were resuspended in 70% Matrigel (density ˜450 crypts per dome, 2 domes per well in 24-well plate) and allowed to solidify at 37° C. for 20 min. CCM (1.5 mL) was then added to each well. Cultures were incubated in a humidified incubator at 37° C., and CCM was changed daily. Intestinal organoid treatment with LPS and metabolites
as §1, §2, §3

The structures appear in SMILES notation.

As to `NC(=O)c1ccc[n+]([C@@H]2O[C@H](CO)[C@@H](O)[C@H]2O)c1` [Nicotinamide.riboside, nicotinamide riboside], the “integrated TEER (area under the curve, FIG. 21B)” value (“integrated TEER” below) in test [1] is on record as “protected the cells from barrier disruption by TOX”.

Take `NC(=O)c1cccnc1` [NAM, nicotinamide]: in test [1], the “integrated TEER” value is given as “protected the cells from barrier disruption by TOX”.

As to `O=C(O)C(O)Cc1c[nH]c2ccccc12` (stereo not shown) [Indolelactic.acid, indole-3-lactic acid], the “TEER, indole metabolites (FIG. 22A)” value in test [1] is “clearly protective against TOX-induced decreases in TEER”.

In the case of `O=C(O)CCc1c[nH]c2ccccc12` [Indole-3-propionic.acid, indole-3-propionic acid], the “TEER, indole metabolites (FIG. 22A)” value in test [1] is “clearly protective against TOX-induced decreases in TEER”. Besides, in test [2], the “goblet and Paneth cell transcripts and cell numbers” value is “reduced goblet and Paneth cell transcripts as well as cell numbers”. Besides, the “gene expression of Ocln” value in the test with ZO-1 (Tjp1) and Ocln (ex vivo, in the presence of the barrier disruptor) is “increased gene expression of Ocln”. The “TJ expression at the protein and mRNA levels” value in the test on ZO-1 (Tjp1) and Ocln (in the presence of LPS (1 μg/mL), 48 hr) is given as “increased TJ expression”.

Consider `N#CCc1c[nH]c2ccccc12` [Indole-3-acetonitrile], for which, in test [1], the “TEER, indole metabolites (FIG. 22A)” value is given as “clearly protective against TOX-induced decreases in TEER”.

In the case of `NC(=O)c1ccc[n+]([C@@H]2O[C@H](COP(=O)([O-])OP(=O)(O)OC[C@H]3O[C@@H](n4cnc5c(N)ncnc54)[C@H](O)[C@@H]3O)[C@@H](O)[C@H]2O)c1` [NAD], the “integrated TEER” value in test [1] is “protected the cells from barrier disruption by TOX”.

Take `O=C(O)c1c[nH]c2ccccc12` [Indole-3-carboxylic.acid, indole-3-carboxylic acid]: in test [1], the “TEER, indole metabolites (FIG. 22A)” value was “clearly protective against TOX-induced decreases in TEER”.

The record behind these values is US20240350456A1, “COMPOSITIONS AND METHODS FOR DIAGNOSING AND TREATING INFLAMMATORY CONDITIONS” (RUTGERS, THE STATE UNIVERSITY OF NEW JERSEY, priority 2023, published 2024).
